Structures are written as SMILES.

Holding throughout (experiment): NCI-60 SRB screen
What all share (format): cell-based

Assay [1] relates to UO-31. Particulars: Homo sapiens; UO-31, 10^–5 Molar; read-out: Percent growth inhibition. Summed up: (§1)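 Initial single-dose screen: 48 h drug exposure at 10^−5 M in RPMI 1640 medium, 37 °C. Bound SRB measured at […] and converted to % growth inhibition.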
The subject of assay [2] is 786-0. The conditions noted are these: Homo sapiens; 786-0, 10^–5 Molar; read-out: Percent growth inhibition. Summed up:
(§2)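 Growth inhibition derived from SRB-stained protein read at […], normalised to cell density at drug addition and to drug-free controls. Exposure: 48 h at 10^−5 M in RPMI 1640 with L-glutamine and fetal bovine serum.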

Assay [3] has as its system SF-539. Particulars: Homo sapiens; SF-539, 10^–5 Molar; read-out: Percent growth inhibition. Summed up:
as §1

Assay [4] relates to NCI-H522. The conditions noted are these: Homo sapiens; NCI-H522, 10^–5 Molar; read-out: Percent growth inhibition. In a few lines: as §1
Assay [5] has as its system ACHN. The conditions noted are these: Homo sapiens, 10^–5 Molar, read-out: Percent growth inhibition. Summed up:
as §2

The test system of assay [6] is MDA-MB-435. Particulars: Homo sapiens; MDA-MB-435, 10^–5 Molar; read-out: Percent growth inhibition. Summed up:
as §2

In assay [7] the test system is MALME-3M. Particulars: Homo sapiens, 10^–5 Molar, read-out: Percent growth inhibition. Summed up:
as §2

The test system of assay [8] is NCI-H23. The conditions noted are these: Homo sapiens; NCI-H23, 10^–5 Molar; read-out: Percent growth inhibition. Summed up: as §1
In assay [9] the test system is KM12. Particulars: Homo sapiens; KM12, 10^–5 Molar; read-out: Percent growth inhibition. Summed up: as §2
Assay [10] has as its system UACC-62. The conditions noted are these: Homo sapiens; UACC-62, 10^–5 Molar; read-out: Percent growth inhibition. Summed up:
as §2

Assay [11] relates to HCT-116. The conditions noted are these: Homo sapiens; HCT-116, 10^–5 Molar; read-out: Percent growth inhibition. In a few lines:
as §1

Assay [12] concerns SF-295. Particulars: Homo sapiens; SF-295, 10^–5 Molar; read-out: Percent growth inhibition. In a few lines: as §2
For assay [13], the system named is HS 578T. The conditions noted are these: Homo sapiens, 10^–5 Molar, read-out: Percent growth inhibition. In a few lines: as §1
Assay [14] relates to HCC-2998. Particulars: Homo sapiens; HCC-2998, 10^–5 Molar; read-out: Percent growth inhibition. In a few lines: as §1
The test system of assay [15] is OVCAR-5. Particulars: Homo sapiens; OVCAR-5, 10^–5 Molar; read-out: Percent growth inhibition. Summed up:
as §2

Assay [16] has as its system NCI-H460. The conditions noted are these: Homo sapiens; NCI-H460, 10^–5 Molar; read-out: Percent growth inhibition. In a few lines: as §1
For assay [17], the system named is T-47D. The conditions noted are these: Homo sapiens, T47D, 10^–5 Molar, read-out: Percent growth inhibition. In a few lines:
as §2

The test system of assay [18] is MCF7. The conditions noted are these: Homo sapiens; MCF7, 10^–5 Molar; read-out: Percent growth inhibition. In a few lines:
as §1

Assay [19] concerns NCI-H322M. Particulars: Homo sapiens, 10^–5 Molar, read-out: Percent growth inhibition. Summed up:
as §1

The test system of assay [20] is HOP-92. The conditions noted are these: Homo sapiens; HOP-92, 10^–5 Molar; read-out: Percent growth inhibition. In a few lines:
as §1

Assay [21] concerns SW-620. The conditions noted are these: Homo sapiens; SW-620, 10^–5 Molar; read-out: Percent growth inhibition. In a few lines: as §1
The subject of assay [22] is M14. The conditions noted are these: Homo sapiens; M14, 10^–5 Molar; read-out: Percent growth inhibition. Summed up:
as §1

Assay [23] deals with BT-549. Particulars: Homo sapiens; BT-549, 10^–5 Molar; read-out: Percent growth inhibition. In a few lines: as §1
Assay [24] relates to U251. The conditions noted are these: Homo sapiens, U-251; U251, 10^–5 Molar; read-out: Percent growth inhibition. In a few lines: as §1

As for `CCn1cc(C(=O)O)c(=O)c2cc(F)c(N3CCN(CC(=O)Nc4ccccc4)C(C)C3)c(F)c21` (centres unmarked) [Compound 5a, 1-Ethyl-6,8-difluoro-7-(3-methyl-4-(2-oxo-2-(phenylamino)ethyl)piperazin-1-yl)-4-oxo-1,4-dihydroquinoline-3-carboxylic acid], the inhibition (usually the drop in the measured response relative to a control, in per cent) at 10 µM was found to be 23.5% in [1]; 7.47% in assay [2]; 0.89% in assay [3]; 7.5% in assay [4]; 2.19% in assay [5]; 2.9% in assay [6]. Further, the inhibition at 10 µM came out at 2.09% in [7]; 8.68% in assay [8]; 0.07% in assay [9]; 21.8% in [10]; 0.13% in assay [11]; 4.71% in assay [12]. Moreover, the inhibition at 10 µM in assay [13] came to 8.88%; in assay [14], 0.15%; in assay [15] it was 1.71%; in assay [16], 0.79%; in assay [17], 4.6%; in assay [18] it was 7.33%. Also, the inhibition at 10 µM came out at 14.3% in assay [19] and 2.95% in assay [20].
Turning to `CCn1cc(C(=O)O)c(=O)c2cc(F)c(N3CCN(C(=O)c4ccc(Br)cc4)C(C)C3)c(F)c21` (centres unmarked) [Compound 7b, 7-(4-(4-Bromobenzoyl)-3-methylpiperazin-1-yl)-1-ethyl-6,8-difluoro-4-oxo-1,4-dihydroquinoline-3-carboxylic acid], the inhibition at 10 µM in assay [1] was 21.4%; in [21], 0%; in assay [2], 0.58%; in assay [3] it was 9.67%; in [4] it was 10%; in assay [5], 2.27%. Also, the inhibition at 10 µM was 3.15% in assay [6]; 3.51% in [9]; 17.5% in assay [10]; 6.71% in assay [12]; 4.22% in assay [13]; 2.96% in assay [15]. Besides, the inhibition at 10 µM in assay [16] turned out to be 1.2%; in assay [17], 6.95%; in assay [18], 8.87%; in assay [19], 5.64%.
`CCn1cc(C(=O)O)c(=O)c2cc(F)c(N3CCN(C(=O)c4ccc([N+](=O)[O-])cc4)C(C)C3)c(F)c21` (centres unmarked) [Compound 7d, 1-Ethyl-6,8-difluoro-7-(3-methyl-4-(4-nitrobenzoyl)piperazin-1-yl)-4-oxo-1,4-dihydroquinoline-3-carboxylic acid]: the inhibition at 10 µM in assay [1] is 27.2%; in assay [2], 0.6%; in [3], 8.54%; in assay [4], 0.62%; in assay [5], 2.14%; in assay [7], 0.88%. Further, the inhibition at 10 µM in assay [9] came out at 1.24%; in [10], 10.9%; in assay [11], 2.1%; in [12] it was 2.82%; in assay [13] it was 8.17%; in [15], 9.27%. The inhibition at 10 µM worked out at 4.73% in assay [17], 5.47% in assay [18], 12.7% in assay [19] and 0.34% in assay [20].
With `CCn1cc(C(=O)O)c(=O)c2cc(F)c(N3CCN(CC(=O)Nc4ccc(Cl)cc4)C(C)C3)c(F)c21` (centres unmarked) [Compound 5b, 7-(4-(2-((4-Chlorophenyl)amino)-2-oxoethyl)-3-methylpiperazin-1-yl)-1-ethyl-6,8-difluoro-4-oxo-1,4-dihydroquinoline-3-carboxylic acid], the inhibition at 10 µM in assay [1] was 31.4%; in [22] it was 2.06%; in assay [21], 1.08%; in assay [3] it was 4.4%; in assay [4], 8.89%; in [5] it was 14%. Moreover, the inhibition at 10 µM in [6] is 5.85%; in assay [7], 4.32%; in assay [8], 7.93%; in assay [9], 3.94%; in assay [10], 40.8%; in assay [23], 0.23%. In addition, the inhibition at 10 µM in assay [11] came to 0.67%; in assay [12], 13%; in assay [13] it was 11.2%; in assay [16], 9.4%; in [17], 11.2%; in assay [18] it was 10.6%. In addition, the inhibition at 10 µM in [19] is 13.8%; in assay [20] it was 9.45%.
As for `CCn1cc(C(=O)O)c(=O)c2cc(F)c(N3CCN(C(=O)c4ccc(Cl)cc4)C(C)C3)c(F)c21` (centres unmarked) [Compound 7c, 7-(4-(4-Chlorobenzoyl)-3-methylpiperazin-1-yl)-1-ethyl-6,8-difluoro-4-oxo-1,4-dihydroquinoline-3-carboxylic acid], the inhibition at 10 µM came to 23.9% in [1]; 5.06% in assay [3]; 9.51% in assay [4]; 4.45% in assay [5]; 6.54% in [6]; 1.6% in assay [7]. In addition, the inhibition at 10 µM in assay [9] is 0.72%; in assay [10], 18.9%; in assay [11], 0.17%; in assay [12] it was 3.13%; in assay [13], 5.57%; in [15], 2.81%. Also, the inhibition at 10 µM turned out to be 1.66% in assay [16], 5.3% in assay [17], 9.09% in [18] and 7.81% in [19].
`CCn1cc(C(=O)O)c(=O)c2cc(F)c(N3CCN(C(=O)c4ccccc4)C(C)C3)c(F)c21` (centres unmarked) [Compound 7a, 7-(4-Benzoyl-3-methylpiperazin-1-yl)-1-ethyl-6,8-difluoro-4-oxo-1,4-dihydroquinoline-3-carboxylic acid]: the inhibition at 10 µM in [1] amounted to 28.5%; in assay [22] it was 9.98%; in assay [2], 14.7%; in [3], 10.7%; in assay [4] it was 9.08%; in assay [5] it was 5.78%. In addition, the inhibition at 10 µM in assay [6] stood at 4.07%; in assay [24], 2.73%; in assay [7] it was 4.96%; in assay [8], 4.39%; in assay [9], 1.89%; in assay [10] it was 25%. Moreover, the inhibition at 10 µM was 3.33% in assay [23]; 6.9% in [12]; 18.1% in [13]; 5.26% in [14]; 5.65% in [15]; 4.91% in assay [16]. The inhibition at 10 µM was determined as 18.1% in [17], 6.26% in assay [18], 14.4% in [19] and 31.8% in assay [20].

The record behind these values is article PMC10940605, “Design, synthesis and in vitro anticancer activity of some new lomefloxacin derivatives” (Scientific Reports, 2024).
